Where a chain is given by its changes, count along the chain named. “And” between values parts separate entries of the source, which are not always exact repeats. Equal values may be shown once.
Assays:
Type in all cases: biochemical, Aloe barbadensis
AbCGT = AbCGT (Aloe vera, UniProt A0A7G9P699); assay: Glycosyltransferase activity assay, purified AbCGT (wild type) with aglycon acceptors and UDP-Glc; settings: for conversion rates, O,N,S-glycosylation / conversion rates, di-C-glycosylation / conversion rates, mono-C-glycosylation: aglycon acceptor with UDP-Glc, pH 7.4, 30 °C, up to 12 h, Reaction-1 to -3
AbCGT, sequence (A0A7G9P699 entry or part of it): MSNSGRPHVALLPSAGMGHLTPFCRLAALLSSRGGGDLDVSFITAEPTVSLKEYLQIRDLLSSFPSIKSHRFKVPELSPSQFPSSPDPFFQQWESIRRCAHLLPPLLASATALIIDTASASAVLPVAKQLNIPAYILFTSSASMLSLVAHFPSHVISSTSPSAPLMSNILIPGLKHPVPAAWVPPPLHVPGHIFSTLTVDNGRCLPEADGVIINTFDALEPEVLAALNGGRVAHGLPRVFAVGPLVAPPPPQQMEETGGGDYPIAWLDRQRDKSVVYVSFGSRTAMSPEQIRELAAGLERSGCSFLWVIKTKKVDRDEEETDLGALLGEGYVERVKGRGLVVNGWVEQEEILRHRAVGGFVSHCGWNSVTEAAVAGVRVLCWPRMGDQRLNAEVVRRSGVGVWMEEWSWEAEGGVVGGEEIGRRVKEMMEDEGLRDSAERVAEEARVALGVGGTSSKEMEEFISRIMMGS
Experimental: Due to the instability of some acceptors in the buffer of pH 11.0, the reactions were performed under the physiological conditions (pH 7.4, 30 °C) to compare the catalytic activities of AbGT27 with different substrates under the same conditions. The reactions were performed at 30 °C for up to 12 h and terminated by the addition of 200 μL of ice-cold methanol. Subsequently, samples were centrifuged at 15,000 × g for 30 min to collect the supernatant, and aliquots were analyzed by HPLC-UV/ESIMS. […] The gradient programs were used for the analysis of the reactions (Supplementary Table 6). The conversion rates of the enzyme reactions were calculated from peak areas of glycosylated products and substrates as analyzed by HPLC. To facilitate inferential statistical analysis, three parallel assays were routinely performed; the means ± SD from triplicate analyses are reported here.

AbCGT V183E = target: T1, AbCGT V183E (Aloe vera, UniProt A0A7G9P699, V183E); assay: Glycosyltransferase activity of AbCGT variant V183E
T1 sequence (A0A7G9P699 1-470 V183E): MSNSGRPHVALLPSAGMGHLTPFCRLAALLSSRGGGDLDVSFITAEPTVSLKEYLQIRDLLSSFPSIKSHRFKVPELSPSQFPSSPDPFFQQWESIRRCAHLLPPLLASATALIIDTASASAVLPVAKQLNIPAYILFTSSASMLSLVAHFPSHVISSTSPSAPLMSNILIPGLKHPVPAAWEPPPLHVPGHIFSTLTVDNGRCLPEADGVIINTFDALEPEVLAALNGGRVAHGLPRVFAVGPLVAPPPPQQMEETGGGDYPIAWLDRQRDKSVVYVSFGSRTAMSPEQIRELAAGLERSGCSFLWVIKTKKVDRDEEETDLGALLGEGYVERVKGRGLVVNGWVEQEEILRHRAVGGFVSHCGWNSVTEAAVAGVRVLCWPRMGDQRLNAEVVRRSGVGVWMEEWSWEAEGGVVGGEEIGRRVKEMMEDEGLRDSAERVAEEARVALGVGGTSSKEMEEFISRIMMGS
Experimental: (§1) The reaction mixture contained 0.5 mM sugar donors (1.0 mM for di-glycosylation), 0.25 mM aglycons, 50 mM Tris-HCl (pH 7.4), and 50‒100 μg of purified AbCGT in a final volume of 100 μL. Due to the instability of some acceptors in the buffer of pH 11.0, the reactions were performed under the physiological conditions (pH 7.4, 30 °C) to compare the catalytic activities of AbGT27 with different substrates under the same conditions. The reactions were performed at 30 °C for up to 12 h and terminated by the addition of 200 μL of ice-cold methanol. Subsequently, samples were centrifuged at 15,000 × g for 30 min to collect the supernatant, and aliquots were analyzed by HPLC-UV/ESIMS. HPLC analysis was performed on a Shiseido CAPCELL PAK C18 MG III column (250 mm × 4.6 mm I.D., 5 μm, Shiseido Co., Ltd., Japan) at a flow rate of 1 mL min^‒1. The mobile phase was a gradient elution of solvents A (0.1% formic acid aqueous solution) and B (methanol). The gradient programs were used for the analysis of the reactions (Supplementary Table 6). The conversion rates of the enzyme reactions were calculated from peak areas of glycosylated products and substrates as analyzed by HPLC. To facilitate inferential statistical analysis, three parallel assays were routinely performed; the means ± SD from triplicate analyses are reported here.
(§2) Site-saturation mutagenesis of AbCGT at residue 183 was performed by PCR using pET28a-AbCGT as a template and the corresponding degenerate primers, which are listed in Supplementary Table 5. PCR products were purified and transformed into Trans1-T1 (DE3) E. coli. The sequences of pET28a-AbCGT mutants were confirmed by sequencing, and transformed into Transetta (DE3) E. coli for heterologous expression following protein purification.

AbCGT V183D = target: T2, AbCGT V183D (Aloe vera, UniProt A0A7G9P699, V183D); assay: Glycosyltransferase activity of AbCGT variant V183D
T2 sequence (A0A7G9P699 1-470 V183D): T1 sequence (A0A7G9P699 1-470 V183E) with E183D
Experimental: as §1, §2

SMILES | conversion rates, O,N,S-glycosylation (AbCGT) | conversion rates, di-C-glycosylation (AbCGT) | conversion rates, mono-C-glycosylation (AbCGT) | WT/yield of C-glycoside(%) (AbCGT; reaction-1) | WT/yield of O-glycoside(%) (AbCGT; reaction-1) | WT/yield of C-glycoside(%) (AbCGT; reaction-2) | WT/yield of O-glycoside(%) (AbCGT; reaction-2) | WT/yield of C-glycoside(%) (AbCGT; reaction-3) | WT/yield of O-glycoside(%) (AbCGT; reaction-3) | V183E/yield of O-glycoside(%) (AbCGT V183E; reaction-1) | V183E/yield of C-glycoside(%) (AbCGT V183E; reaction-2) | V183E/yield of O-glycoside(%) (AbCGT V183E; reaction-2) | V183E/yield of C-glycoside(%) (AbCGT V183E; reaction-3) | V183E/yield of O-glycoside(%) (AbCGT V183E; reaction-3) | V183D/yield of C-glycoside(%) (AbCGT V183D; reaction-1) | V183D/yield of O-glycoside(%) (AbCGT V183D; reaction-1) | V183D/yield of C-glycoside(%) (AbCGT V183D; reaction-2) | V183D/yield of O-glycoside(%) (AbCGT V183D; reaction-2) | V183D/yield of C-glycoside(%) (AbCGT V183D; reaction-3) | V183D/yield of O-glycoside(%) (AbCGT V183D; reaction-3) | further results
CC(=O)c1cccc(O)c1 [Compound 2] | 71% and 72.2% and 73.1% | 0% | 0% | 0% | 70.1% | 0% | 73.8% | 0% | 73% | 0% | 0% | 0% | 0% | 0% | 0% | 0% | 0% | 0% | 0% | 0% | V183E/yield of C-glycoside(%) (AbCGT V183E; reaction-1): 0%
CC(=O)c1ccc(O)cc1 [Compound 3] | 70.3% and 72% and 73% | 0% | 0% | 0% | 70.4% | 0% | 71.9% | 0% | 71% | 0% | 0% | 0% | 0% | 0% | 0% | 0% | 0% | 0% | 0% | 0% | V183E/yield of C-glycoside(%) (AbCGT V183E; reaction-1): 0%
CC(=O)c1cc(O)cc(O)c1 [Compound 4, 3,5-dihydroxyacetophenone] | 32.6% and 34.9% and 33.8% | 0% | 0% | 1% | 38.8% | 0.8% | 32.4% | 1.3% | 32.9% | 0% | 0% | 0% | 0% | 0% | 0% | 0% | 0% | 0% | 0% | 0% | V183E/yield of C-glycoside(%) (AbCGT V183E; reaction-1): 0%
CC(=O)c1c(O)cccc1O [Compound 5] | 72% and 70.6% and 73% | 0% | 16.5% and 14.3% and 13.1% | 15.1% | 73.6% | 14.2% | 71% | 14.7% | 72.9% | 0% | 0% | 0% | 0% | 0% | 8.2% | 0% | 7.5% | 0% | 7.9% | 0% | V183E/yield of C-glycoside(%) (AbCGT V183E; reaction-1): 0%
CC(=O)c1ccc(O)cc1O [Compound 6, 2,4-dihydroxyacetophenone] | 43.8% and 46.5% and 44.5% | 0% | 27.1% and 26.5% and 27.4% | 29.2% | 43.5% | 25.9% | 45.7% | 26% | 47% | 0% | 5.5% | 0% | 6.8% | 0% | 13.9% | 1% | 12.3% | 1.5% | 13.1% | 1.4% | –
CC(=O)c1c(O)cc(C)cc1O [Compound 7] | 77% and 78.6% and 82.4% | 0% | 13.9% and 12% and 15.9% | 15.2% | 77.6% | 14.1% | 78% | 13.5% | 81.4% | 0% | 8.9% | 0% | 13.1% | 0% | 8% | 0.8% | 7.2% | 1% | 7.2% | 1.3% | V183E/yield of C-glycoside(%) (AbCGT V183E; reaction-1): 11.1%
COc1cc(O)c(C(C)=O)c(O)c1 [Compound 13] | 20.7% and 23.5% and 25.6% | 0% | 66.9% and 65.9% and 68.6% | 70.5% | 21.2% | 65% | 22.7% | 68.1% | 25.9% | 0.8% | 4.1% | 2% | 6% | 1.1% | 6.8% | 0% | 7.3% | 0% | 7% | 0% | V183E/yield of C-glycoside(%) (AbCGT V183E; reaction-1): 5.7%
